From ChEMBL document CHEMBL6092167, “Phosphorylation as an Effective Tool to Improve Stability and Reduce Toxicity of Antimicrobial Peptides” (J Med Chem, 2024) come the findings set out here.

Positions of bridges follow the written chain, without caps; N, C: chain ends. Non-standard residues stand in square brackets, D forms with d. Residues, ends and D or L forms follow the SMILES beside them. *: point of attachment. X1 = CC[C@H](C)CCCCC(=O)*; Dab = NCC[C@H](N)C(=O)O

Data set [1] is described as follows: Toxicity in ip dosed BALB/c mouse assessed as hemorrhage in lung at LD50 dose by H and E staining based assay. Type of data set: organism-based. Conditions: in vivo.
Data set [2] is described as follows: Toxicity in ip dosed BALB/c mouse assessed as inflammatory cell infiltration in kidney at LD50 dose by H and E staining based assay. The format is organism-based. The settings on record: in vivo.
Data set [3] in a line: Toxicity in ip dosed BALB/c mouse assessed as sharp breathing at LD50 dose measured within 1 hr by Karber method. The format is organism-based. Conditions: in vivo.
Data set [4] in a line: Toxicity in ip dosed BALB/c mouse assessed as lusterless hair at LD50 dose measured within 1 hr by Karber method. Conditions: in vivo. The format is organism-based.
The nature of data set [5]: Hemolytic activity in mouse erythrocyte incubated for 1 hr by microplate reader assay. Type of data set: toxicity, cell-based.
The nature of data set [6]: Toxicity in ip dosed BALB/c mouse assessed as inflammatory cell infiltration in lung at LD50 dose by H and E staining based assay. Conditions: in vivo. Type of data set: organism-based.
A short description of data set [7]: Toxicity in ip dosed BALB/c mouse assessed as hemorrhage in kidney at LD50 dose by H and E staining based assay. The format is organism-based. Conditions: in vivo.
The nature of data set [8]: Toxicity in ip dosed BALB/c mouse assessed as rapid death at LD50 dose measured within 1 hr by Karber method. Type of data set: organism-based. The settings on record: in vivo.
Data set [9] in a line: Toxicity in ip dosed BALB/c mouse assessed as respiratory depression at LD50 dose measured within 1 hr by Karber method. The format is organism-based. Conditions: in vivo.
A short description of data set [10]: Toxicity in ip dosed BALB/c mouse assessed as alveolar constriction at LD50 dose by H and E staining based assay. Type of data set: organism-based. The settings on record: in vivo.
Data set [11] in a line: Toxicity in ip dosed BALB/c mouse assessed as renal cell swelling at LD50 dose by H and E staining based assay. The format is organism-based. Conditions: in vivo.
Data set [12] can be described thus: Cytotoxicity against HEK293T cells incubated for 1 hr by fluorescence based microplate reader assay. The format is toxicity, cell-based, HEK-293T. The settings on record: human.
Data set [13] in a line: Toxicity in ip dosed BALB/c mouse measured after 14 days. Type of data set: organism-based. The settings on record: in vivo, time 14 day.
Data set [14] in a line: Toxicity in ip dosed BALB/c mouse assessed as convulsions at LD50 dose measured within 1 hr by Karber method. Type of data set: organism-based. The settings on record: in vivo.
A short description of data set [15]: Toxicity in ip dosed BALB/c mouse assessed as lateral recumbency at LD50 dose measured within 1 hr by Karber method. The settings on record: in vivo. The format is organism-based.
Data set [16] in a line: Toxicity in ip dosed BALB/c mouse assessed as pulmonary congestion at LD50 dose by H and E staining based assay. Type of data set: organism-based. Conditions: in vivo.

For orientation: CC50 means the concentration at which the toxic effect on the cells reaches its halfway point. What is called LD50 is the dose expected to kill half of the subjects tested. A low value points to greater toxicity. In the case of `CC(C)CCCCC(=O)N[C@@H](CCN)C(=O)N[C@H](C(=O)N[C@@H](CCN)C(=O)N[C@H]1CCNC(=O)[C@H]([C@@H](C)O)NC(=O)[C@H](CCN)NC(=O)[C@H](CCN)NC(=O)[C@H](CC(C)C)NC(=O)[C@@H](Cc2ccccc2)NC(=O)[C@H](CCN)NC1=O)[C@@H](C)O.CC[C@H](C)CCCCC(=O)N[C@@H](CCN)C(=O)N[C@H](C(=O)N[C@@H](CCN)C(=O)N[C@H]1CCNC(=O)[C@H]([C@@H](C)O)NC(=O)[C@H](CCN)NC(=O)[C@H](CCN)NC(=O)[C@H](CC(C)C)NC(=O)[C@@H](Cc2ccccc2)NC(=O)[C@H](CCN)NC1=O)[C@@H](C)O` (X1-[Dab]T[Dab][Dab][Dab][dF]L[Dab][Dab]T; lactam 4-C), the Activity entry in data set [1], in [2], in data set [3], in data set [4], in data set [6] and in data set [7] was “Toxic” throughout. The Activity entry in data set [8], in [9], in data set [10], in data set [11], in data set [14] and in data set [15] was “Toxic” in each case. The Activity result in [16] is recorded as “Toxic”. Further, in data set [5], the MHC was above 256 µM. The same molecule came in with a CC50 at 1 h in [12] of 128 µM. In addition, in [13], the LD50 at 336 h is 25.7 mg/kg.
